For this assay, the target named is T1, GL3 (luciferase derived from a known firefly) (Photinus pyralis, UniProt P08659, K549A/L550V/N119G/N50D/S548I).
T1 construct: measured as purified protein in a similar manner to SP1
In words: Km of GL3 luciferase (luminescence kinetic analysis). To be noted: read-out: Km for ATP; 0.1 M Tris-HCl (pH 8.0), D-luciferin, MgSO4; measured in a similar manner. Format: biochemical.

Drawing on patent US8722376B2, “Firefly luciferase” (Olympus Corporation, priority 2011, dated 2014), this text covers Km for 1 compound.

In general, Km refers to the substrate concentration at which the rate is half of its maximum.

T1 sequence (P08659 whole entry N50D/N119G/S548I/K549A/L550V): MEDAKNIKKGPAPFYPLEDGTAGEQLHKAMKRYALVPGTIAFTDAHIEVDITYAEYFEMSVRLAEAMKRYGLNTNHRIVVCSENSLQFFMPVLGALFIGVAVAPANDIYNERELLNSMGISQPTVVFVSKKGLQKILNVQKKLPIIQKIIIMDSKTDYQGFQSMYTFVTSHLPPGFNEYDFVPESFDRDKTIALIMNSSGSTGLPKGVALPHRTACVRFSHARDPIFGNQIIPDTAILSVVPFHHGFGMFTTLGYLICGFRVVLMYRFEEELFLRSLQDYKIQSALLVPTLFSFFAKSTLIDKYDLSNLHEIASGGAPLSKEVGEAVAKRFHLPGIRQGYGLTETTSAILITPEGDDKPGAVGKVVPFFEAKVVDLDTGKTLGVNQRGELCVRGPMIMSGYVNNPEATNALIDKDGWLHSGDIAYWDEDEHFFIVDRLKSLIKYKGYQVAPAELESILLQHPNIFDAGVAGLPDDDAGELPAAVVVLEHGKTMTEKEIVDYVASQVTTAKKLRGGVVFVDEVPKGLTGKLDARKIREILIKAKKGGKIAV

In the case of `Nc1ncnc2c1ncn2[C@@H]1O[C@H](COP(=O)(O)OP(=O)(O)OP(=O)(O)O)[C@@H](O)[C@H]1O` [ATP], the Michaelis constant (Km) was 71.3 µM.
